ChEMBL document CHEMBL1201862, “PubChem BioAssay data set” (2004)
Values belong to the molecule of their own block, whether it stands above or below them. Activity calls are given as the source filed them.

How the values were obtained:
[1] = target: Serine/threonine-protein kinase BRSK1 (Homo sapiens, UniProt Q8TDC3); format: functional;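 also: measured within a kinome-wide kinase panel, with the target listed as KIAA1811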
[2] = target: MAP kinase-interacting serine/threonine-protein kinase 2 (Homo sapiens, UniProt Q9HBH9); format: functional
[3] = target: Calcium/calmodulin-dependent protein kinase type 1 (Homo sapiens, UniProt Q14012); format: functional
[4] = target: Vascular endothelial growth factor receptor 3 (Homo sapiens, UniProt P35916); format: functional;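 also: value from a kinome-wide profiling panel, with FLT4 as the panel member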
[5] = target: Serine/threonine-protein kinase pim-2 (Homo sapiens, UniProt Q9P1W9); format: functional;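 also: value comes from a broad kinase panel profiling study in which PIM2 was one of the panel members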
[6] = target: Dual specificity protein kinase CLK2 (Homo sapiens, UniProt P49760); format: functional
[7] = target: Dual specificity tyrosine-phosphorylation-regulated kinase 4 (Homo sapiens, UniProt Q9NR20); format: functional
[8] = target: Receptor tyrosine-protein kinase erbB-4 (Homo sapiens, UniProt Q15303); format: functional;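 also: ERBB4 member of a kinome-wide kinase profiling panel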
[9] = target: Mitogen-activated protein kinase kinase kinase kinase 2 (Homo sapiens, UniProt Q12851); format: functional;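 also: measured as one member of a kinome-wide kinase panel, with MAP4K2 as the panel entry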
[10] = target: Tyrosine-protein kinase Lyn (Homo sapiens, UniProt P07948); format: functional;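 also: lyn as one member of a kinase panel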
[11] = target: Protein kinase C gamma type (Homo sapiens, UniProt P05129); format: functional
[12] = target: Tyrosine-protein kinase JAK2 (Homo sapiens, UniProt O60674); format: functional;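 also: JAK2 tested as one member of a kinase panel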
[13] = target: Serine/threonine-protein kinase PLK4 (Homo sapiens, UniProt O00444); format: functional;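 also: PLK4 measured as one member of a kinome-wide kinase profiling panel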
[14] = target: cGMP-dependent protein kinase 1 (Homo sapiens, UniProt Q13976); format: functional;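 also: value from a kinome panel screen with PRKG1 as the panel member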
[15] = target: Cell division cycle 7-related protein kinase (Homo sapiens, UniProt O00311); format: functional;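 also: value obtained from a kinome-wide kinase panel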
[16] = target: Glycogen synthase kinase-3 beta (Homo sapiens, UniProt P49841); format: functional;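 also: value comes from a broad kinome profiling panel, with GSK3B as the panel member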
[17] = target: Proto-oncogene tyrosine-protein kinase ROS (Homo sapiens, UniProt P08922); format: functional;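 also: ROS1 tested as one member of a kinome-wide kinase panel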
[18] = target: Serine/threonine-protein kinase pim-1 (Homo sapiens, UniProt P11309); format: functional
[19] = target: Tyrosine-protein kinase Blk (Homo sapiens, UniProt P51451); format: functional;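 also: obtained as one member of a kinome-wide kinase assay panel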
[20] = target: Serine/threonine-protein kinase 17A (Homo sapiens, UniProt Q9UEE5); format: functional
[21] = target: Homeodomain-interacting protein kinase 4 (Homo sapiens, UniProt Q8NE63); format: functional
[22] = target: Vascular endothelial growth factor receptor 1 (Homo sapiens, UniProt P17948); format: functional;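 also: measured within a kinome-wide profiling panel, FLT1 as the panel member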
[23] = target: MAP/microtubule affinity-regulating kinase 3 (Homo sapiens, UniProt P27448); format: functional;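 also: MARK3 affinity measured as one member of a kinome panel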
[24] = target: Ribosomal protein S6 kinase alpha-3 (Homo sapiens, UniProt P51812); format: functional;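 also: measured within a kinome-wide profiling panel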
[25] = target: Tyrosine-protein kinase ABL1 (Homo sapiens, UniProt P00519); format: functional
[26] = target: Tyrosine-protein kinase Fyn (Homo sapiens, UniProt P06241); format: functional
[27] = target: Dual specificity tyrosine-phosphorylation-regulated kinase 1A (Homo sapiens, UniProt Q13627); format: functional;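 also: measured against DYRK1A as one member of a broad kinome profiling panel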
[28] = target: Testis-specific serine/threonine-protein kinase 2 (Homo sapiens, UniProt Q96PF2); format: functional;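 also: part of the Navigating the Kinome panel, target entry STK22B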
[29] = target: MAP kinase-activated protein kinase 2 (Homo sapiens, UniProt P49137); format: functional;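 also: measured as one member of a kinome-wide kinase panel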
[30] = target: Interleukin-1 receptor-associated kinase 1 (Homo sapiens, UniProt P51617); format: functional;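 also: IRAK1 tested as one member of a kinome panel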
[31] = target: Mitogen-activated protein kinase 8 (Homo sapiens, UniProt P45983); format: functional;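 also: value comes from one member of a kinome-wide kinase profiling panel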
[32] = target: Mitogen-activated protein kinase 1 (Homo sapiens, UniProt P28482); format: functional
BJ [33] = assay: cytotoxicity toward BJ-TERT-LT-ST fibroblasts, dose response, cell-based, RAS-independent, luminescence (AID 1935); format: functional; details: Homo sapiens;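 also: BJ fibroblasts immortalized with TERT plus LT and ST oncogenes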
BJ [34] = assay: cells; format: functional, cell-based; details: Homo sapiens
[35] = target: T1, Sentrin-specific protease 8 (Homo sapiens, UniProt Q96LD8); format: functional;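 also: kinetic enzyme assay of SENP8 cleaving a Nedd8 protein substrate, dose-response confirmation of screening hits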
T1 sequence (Q96LD8 whole entry): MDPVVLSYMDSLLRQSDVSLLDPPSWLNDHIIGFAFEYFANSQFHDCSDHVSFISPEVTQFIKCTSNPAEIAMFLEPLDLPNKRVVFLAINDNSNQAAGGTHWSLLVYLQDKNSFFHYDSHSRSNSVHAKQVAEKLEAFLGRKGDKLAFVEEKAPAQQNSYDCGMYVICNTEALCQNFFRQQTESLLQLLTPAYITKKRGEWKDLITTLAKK

Procathepsin L = Procathepsin L (Homo sapiens, UniProt P07711)
[36] = target: Intestinal-type alkaline phosphatase (Homo sapiens, UniProt P09923); assay: activation of human intestinal alkaline phosphatase – biochemical, dose response (AID 488873); format: functional
Bcl-2-like protein 10 = target: T2, Bcl-2-like protein 10 (Homo sapiens, UniProt Q9HD36); assay: displacers of TR3 peptide from Bcl-B, primary screen, selectivity assay for Bfl-1 inhibitor project, biochemical, fluorescence polarization, FITC-TR3 peptide (AID 748);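 also: fluorescence polarization from a fluorescein-labelled TR3 peptide binding purified Bcl-B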
T2 sequence (Q9HD36 whole entry): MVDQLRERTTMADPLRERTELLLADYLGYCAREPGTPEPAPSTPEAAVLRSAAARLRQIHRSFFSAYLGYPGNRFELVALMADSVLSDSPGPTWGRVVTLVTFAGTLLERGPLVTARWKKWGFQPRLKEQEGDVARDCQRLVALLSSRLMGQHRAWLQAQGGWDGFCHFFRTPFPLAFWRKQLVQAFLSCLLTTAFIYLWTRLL

[37] = target: Voltage-gated N-type calcium channel alpha-1B subunit/Amyloid beta A4 precursor protein-binding family A member 1 (Homo sapiens, UniProt Q00975+Q02410); format: protein assay
CHO = assay: cytotoxicity in TLR9-MyD88 CHO cells, dose response, cytotoxicity control for TLR9-MyD88 binding inhibitor project, cell-based, luminescence (AID 588339); format: functional, hamster; details: Cricetulus griseus;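 also: CHO cells stably coexpressing TLR9 and MyD88 fusions from primary screen; compound exposure lasted 48 hours before viability readout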

Chain of Calcium/calmodulin-dependent protein kinase type 1 (Q14012 whole entry): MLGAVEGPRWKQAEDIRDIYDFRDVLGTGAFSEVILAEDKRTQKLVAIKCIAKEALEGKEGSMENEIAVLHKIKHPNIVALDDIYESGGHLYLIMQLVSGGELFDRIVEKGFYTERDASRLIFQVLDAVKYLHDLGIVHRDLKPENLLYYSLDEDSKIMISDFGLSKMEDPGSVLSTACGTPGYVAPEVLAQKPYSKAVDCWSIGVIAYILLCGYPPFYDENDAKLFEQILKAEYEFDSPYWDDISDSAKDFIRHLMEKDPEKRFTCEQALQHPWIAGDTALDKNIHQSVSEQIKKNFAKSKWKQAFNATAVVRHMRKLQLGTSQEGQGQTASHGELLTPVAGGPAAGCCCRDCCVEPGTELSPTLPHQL
Chain of MAP kinase-interacting serine/threonine-protein kinase 2 (Q9HBH9 whole entry): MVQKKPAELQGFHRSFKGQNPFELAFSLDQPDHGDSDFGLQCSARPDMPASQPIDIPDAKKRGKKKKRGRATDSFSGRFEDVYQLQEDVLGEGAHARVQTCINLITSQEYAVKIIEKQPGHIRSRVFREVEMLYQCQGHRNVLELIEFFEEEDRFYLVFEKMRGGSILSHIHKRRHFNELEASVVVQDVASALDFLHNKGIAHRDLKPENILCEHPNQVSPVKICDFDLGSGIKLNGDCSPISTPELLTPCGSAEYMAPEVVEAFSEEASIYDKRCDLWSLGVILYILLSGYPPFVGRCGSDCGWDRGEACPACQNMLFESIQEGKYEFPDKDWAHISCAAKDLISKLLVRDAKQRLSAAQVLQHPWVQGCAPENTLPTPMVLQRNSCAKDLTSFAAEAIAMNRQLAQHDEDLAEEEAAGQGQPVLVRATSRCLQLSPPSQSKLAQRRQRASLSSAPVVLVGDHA
Chain of Tyrosine-protein kinase Blk (P51451 whole entry): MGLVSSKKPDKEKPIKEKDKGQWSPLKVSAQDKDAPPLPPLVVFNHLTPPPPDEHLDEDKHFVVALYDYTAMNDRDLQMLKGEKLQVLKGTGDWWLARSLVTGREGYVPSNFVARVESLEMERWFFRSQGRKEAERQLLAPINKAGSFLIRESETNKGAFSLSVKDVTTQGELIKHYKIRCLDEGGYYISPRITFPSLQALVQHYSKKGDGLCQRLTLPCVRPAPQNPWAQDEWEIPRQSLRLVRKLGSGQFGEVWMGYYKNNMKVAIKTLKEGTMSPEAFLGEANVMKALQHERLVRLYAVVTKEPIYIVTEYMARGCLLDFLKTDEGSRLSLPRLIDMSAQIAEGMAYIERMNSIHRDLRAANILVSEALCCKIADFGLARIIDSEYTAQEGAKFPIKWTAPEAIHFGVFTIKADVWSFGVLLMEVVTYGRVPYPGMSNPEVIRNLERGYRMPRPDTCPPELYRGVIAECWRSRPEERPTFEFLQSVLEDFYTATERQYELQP
Chain of Vascular endothelial growth factor receptor 3 (P35916 whole entry): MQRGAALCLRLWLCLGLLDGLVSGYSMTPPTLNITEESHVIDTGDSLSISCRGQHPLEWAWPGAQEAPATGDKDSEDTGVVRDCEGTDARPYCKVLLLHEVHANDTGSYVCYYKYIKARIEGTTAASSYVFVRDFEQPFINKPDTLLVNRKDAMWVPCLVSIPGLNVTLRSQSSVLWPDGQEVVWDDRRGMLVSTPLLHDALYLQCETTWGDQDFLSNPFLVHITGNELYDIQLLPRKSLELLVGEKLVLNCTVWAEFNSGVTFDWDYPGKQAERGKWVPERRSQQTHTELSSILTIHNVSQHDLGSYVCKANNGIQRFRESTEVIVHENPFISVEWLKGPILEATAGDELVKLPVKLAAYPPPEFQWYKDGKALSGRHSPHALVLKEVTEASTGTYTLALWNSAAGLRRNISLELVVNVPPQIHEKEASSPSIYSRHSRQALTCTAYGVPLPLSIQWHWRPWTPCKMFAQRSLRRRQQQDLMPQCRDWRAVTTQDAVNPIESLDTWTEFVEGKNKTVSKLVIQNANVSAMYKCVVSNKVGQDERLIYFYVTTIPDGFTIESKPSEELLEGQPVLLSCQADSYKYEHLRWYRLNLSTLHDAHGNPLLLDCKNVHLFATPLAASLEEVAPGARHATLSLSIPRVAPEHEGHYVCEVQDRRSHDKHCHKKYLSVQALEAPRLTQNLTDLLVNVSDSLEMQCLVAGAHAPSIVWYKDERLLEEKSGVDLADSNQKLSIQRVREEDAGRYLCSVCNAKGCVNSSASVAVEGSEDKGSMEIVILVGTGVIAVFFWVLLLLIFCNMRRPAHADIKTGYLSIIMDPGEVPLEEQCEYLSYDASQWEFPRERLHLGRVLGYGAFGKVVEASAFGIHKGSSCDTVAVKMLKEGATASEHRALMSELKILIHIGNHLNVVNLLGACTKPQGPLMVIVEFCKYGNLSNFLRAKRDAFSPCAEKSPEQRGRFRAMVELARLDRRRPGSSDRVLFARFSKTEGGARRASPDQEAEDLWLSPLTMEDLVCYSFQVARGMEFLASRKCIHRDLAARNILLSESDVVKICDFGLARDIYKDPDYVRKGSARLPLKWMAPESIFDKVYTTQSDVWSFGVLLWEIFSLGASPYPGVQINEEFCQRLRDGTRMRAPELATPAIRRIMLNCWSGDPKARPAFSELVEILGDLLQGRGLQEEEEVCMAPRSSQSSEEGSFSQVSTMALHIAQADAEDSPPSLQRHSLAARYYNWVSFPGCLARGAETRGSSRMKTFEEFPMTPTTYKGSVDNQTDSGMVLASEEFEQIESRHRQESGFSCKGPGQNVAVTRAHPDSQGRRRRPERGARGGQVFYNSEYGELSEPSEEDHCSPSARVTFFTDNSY
Chain of MAP kinase-activated protein kinase 2 (P49137 whole entry): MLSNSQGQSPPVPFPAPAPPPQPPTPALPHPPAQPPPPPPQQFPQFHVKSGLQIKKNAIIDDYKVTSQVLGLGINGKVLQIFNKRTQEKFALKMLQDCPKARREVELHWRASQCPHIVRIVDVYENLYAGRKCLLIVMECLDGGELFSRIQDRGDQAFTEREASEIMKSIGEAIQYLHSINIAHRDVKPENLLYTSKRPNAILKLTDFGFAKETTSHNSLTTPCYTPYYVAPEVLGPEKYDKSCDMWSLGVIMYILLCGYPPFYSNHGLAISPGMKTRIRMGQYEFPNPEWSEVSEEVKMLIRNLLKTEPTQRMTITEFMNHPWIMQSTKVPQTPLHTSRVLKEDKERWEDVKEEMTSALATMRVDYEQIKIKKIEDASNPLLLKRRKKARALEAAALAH
Chain of Receptor tyrosine-protein kinase erbB-4 (Q15303 whole entry): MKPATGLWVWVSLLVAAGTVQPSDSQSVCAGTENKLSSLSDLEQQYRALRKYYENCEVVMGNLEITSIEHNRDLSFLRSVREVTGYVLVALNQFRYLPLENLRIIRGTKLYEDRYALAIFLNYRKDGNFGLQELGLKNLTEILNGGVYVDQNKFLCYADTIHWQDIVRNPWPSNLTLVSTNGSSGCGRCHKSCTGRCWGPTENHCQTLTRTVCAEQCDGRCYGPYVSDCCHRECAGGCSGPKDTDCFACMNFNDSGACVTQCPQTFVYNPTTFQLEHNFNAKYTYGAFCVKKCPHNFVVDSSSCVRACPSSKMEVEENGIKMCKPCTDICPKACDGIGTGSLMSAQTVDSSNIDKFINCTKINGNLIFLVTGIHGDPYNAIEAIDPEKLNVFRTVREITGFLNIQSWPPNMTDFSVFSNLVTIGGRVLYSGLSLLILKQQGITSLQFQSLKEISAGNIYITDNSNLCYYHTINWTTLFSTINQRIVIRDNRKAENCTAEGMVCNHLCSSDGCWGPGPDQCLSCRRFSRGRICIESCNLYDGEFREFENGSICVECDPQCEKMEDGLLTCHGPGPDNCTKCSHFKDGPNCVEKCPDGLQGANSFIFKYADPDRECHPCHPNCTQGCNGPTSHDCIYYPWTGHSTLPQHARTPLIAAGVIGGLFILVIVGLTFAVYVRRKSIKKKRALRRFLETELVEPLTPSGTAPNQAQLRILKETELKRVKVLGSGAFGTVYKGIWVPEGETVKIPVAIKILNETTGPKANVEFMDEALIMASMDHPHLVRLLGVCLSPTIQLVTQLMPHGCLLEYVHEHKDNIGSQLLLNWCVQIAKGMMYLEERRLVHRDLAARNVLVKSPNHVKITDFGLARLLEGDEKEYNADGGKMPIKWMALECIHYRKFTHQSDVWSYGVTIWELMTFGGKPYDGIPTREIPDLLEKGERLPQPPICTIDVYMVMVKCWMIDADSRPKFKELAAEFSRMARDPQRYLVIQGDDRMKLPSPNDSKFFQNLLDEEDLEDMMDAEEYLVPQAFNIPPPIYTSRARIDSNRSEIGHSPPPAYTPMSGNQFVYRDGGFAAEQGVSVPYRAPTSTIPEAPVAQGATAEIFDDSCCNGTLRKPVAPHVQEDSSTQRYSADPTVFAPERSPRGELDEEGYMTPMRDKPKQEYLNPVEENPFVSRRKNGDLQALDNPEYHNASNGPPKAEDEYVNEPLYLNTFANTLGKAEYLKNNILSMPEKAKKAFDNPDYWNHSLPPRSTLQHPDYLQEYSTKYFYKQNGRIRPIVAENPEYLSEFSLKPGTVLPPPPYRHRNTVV
Chain of Procathepsin L (P07711 whole entry): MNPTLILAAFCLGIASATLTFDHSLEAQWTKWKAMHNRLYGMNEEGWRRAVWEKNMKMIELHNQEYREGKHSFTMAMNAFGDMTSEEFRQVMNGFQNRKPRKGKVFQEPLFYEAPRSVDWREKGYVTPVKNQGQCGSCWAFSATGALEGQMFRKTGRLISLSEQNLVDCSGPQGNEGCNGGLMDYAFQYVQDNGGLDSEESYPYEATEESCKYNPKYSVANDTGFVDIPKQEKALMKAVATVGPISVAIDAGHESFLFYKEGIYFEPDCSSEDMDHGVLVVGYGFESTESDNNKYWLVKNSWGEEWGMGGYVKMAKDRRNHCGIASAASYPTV

- Ki [1]: 12.6 nM (active)
- Ki [2]: 126 nM (active)
- Ki [3]: > 1260 nM (inactive)
- Ki [4]: 3.16 nM (active)
- Ki [5]: 1000 nM (active)
- Ki [6]: 50.1 nM (active)
- Ki [7]: 3160 nM (active)
- Ki [8]: > 3980 nM (inactive)
- Ki [9]: 7.94 nM (active)
- Ki [10]: 398 nM (active)
- Ki [11]: 1260 nM (active)
- Ki [12]: 158 nM (active)
- Ki [13]: 12.6 nM (active)
- Ki [14]: 126 nM (active)
- Ki [15]: 126 nM (active)
- Ki [16]: 3.16 nM (active)
- Ki [17]: > 2000 nM (inactive)
- Ki [18]: 1580 nM (active)
- Ki [19]: 158 nM (active)
- Ki [20]: 3.98 nM (active)
- Ki [21]: 2000 nM (active)
- Ki [22]: 10 nM (active)
- Ki [23]: 39.8 nM (active)
- Ki [24]: 39.8 nM (active)
- Ki [25]: > 631 nM (inactive)
- Ki [26]: 200 nM (active)
- Ki [27]: 7.94 nM (active)
- Ki [28]: > 1580 nM (inactive)
- Ki [29]: 1260 nM (active)
- Ki [30]: 20 nM (active)
- Ki [31]: 126 nM (active)
- Ki [32]: 158 nM (active)
Structure (SMILES): O=C1Nc2ccc3ncsc3c2C1=CNc1ccc(S(=O)(=O)Nc2ccccn2)cc1

Structure (SMILES): Cc1ccc(NC2=C/C(=N\S(=O)(=O)c3cccs3)c3ccccc3C2=O)c(C)c1
- EC50 (BJ [33]): 4420 nM (inconclusive)
- EC50 (BJ [34]): 4150 nM (active)

Structure (SMILES): COc1ccc(/C=N/NC(=O)c2nn(-c3ccccc3)c(=O)c3c(N)scc23)cc1
- IC50 [35]: 415 nM (active)

Structure (SMILES): Oc1ccc(-c2cn3c(n2)SCC3)cc1O
- IC50 (Procathepsin L): > 59600 nM (not active)
- EC50 [36]: 22100 nM (active)
- IC50 (Bcl-2-like protein 10): 79100 nM (inactive)

Structure (SMILES): CC(=O)N(C1=C(Cl)C(=O)c2ccccc2C1=O)C1CCCCC1
- IC50 [37]: 3650 nM (active)
- IC50 (CHO): 802 nM (active)
